From ChEMBL document CHEMBL1909046, “DrugMatrix in vitro pharmacology data”

What was measured:
[1] = target: Protein phosphatase 3 catalytic subunit alpha (Homo sapiens, UniProt Q08209); design: species or system Escherichia coli;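 also: inhibition of calcineurin (PP2B) enzyme activity, measured with DiFMUP as the substrate; in other assays of this panel Not Active means under 50% inhibition at 10 µM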
[2] = DRUGMATRIX: Phosphodiesterase PDE4 enzyme inhibition (substrate: [3H]cAMP + cAMP); conditions: u-937; Not Active = under 50% inhibition at 10 µM
[3] = DRUGMATRIX: Glutamate, AMPA radioligand binding (ligand: [3H] AMPA); format: cell membranes, Rattus norvegicus, Wistar, Cerebral cortex, Membrane; conditions: Not Active = under 50% inhibition at 10 µM
[4] = DRUGMATRIX: Calcium Channel Type L, Dihydropyridine radioligand binding (ligand: [3H] Nitrendipine); format: cell membranes, Rattus norvegicus, Wistar, Cerebral cortex, Membrane; conditions: Not Active = under 50% inhibition at 10 µM
[5] = target: Prostaglandin G/H synthase 1 (Homo sapiens, UniProt P23219); test: biochemical; format: tissue-based, Platelet;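 also: inhibition of COX-1 enzyme activity, with arachidonic acid supplied as substrate; in other assays of this panel Not Active means under 50% inhibition at 10 µM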
Chain of Prostaglandin G/H synthase 1 (P23219 whole entry): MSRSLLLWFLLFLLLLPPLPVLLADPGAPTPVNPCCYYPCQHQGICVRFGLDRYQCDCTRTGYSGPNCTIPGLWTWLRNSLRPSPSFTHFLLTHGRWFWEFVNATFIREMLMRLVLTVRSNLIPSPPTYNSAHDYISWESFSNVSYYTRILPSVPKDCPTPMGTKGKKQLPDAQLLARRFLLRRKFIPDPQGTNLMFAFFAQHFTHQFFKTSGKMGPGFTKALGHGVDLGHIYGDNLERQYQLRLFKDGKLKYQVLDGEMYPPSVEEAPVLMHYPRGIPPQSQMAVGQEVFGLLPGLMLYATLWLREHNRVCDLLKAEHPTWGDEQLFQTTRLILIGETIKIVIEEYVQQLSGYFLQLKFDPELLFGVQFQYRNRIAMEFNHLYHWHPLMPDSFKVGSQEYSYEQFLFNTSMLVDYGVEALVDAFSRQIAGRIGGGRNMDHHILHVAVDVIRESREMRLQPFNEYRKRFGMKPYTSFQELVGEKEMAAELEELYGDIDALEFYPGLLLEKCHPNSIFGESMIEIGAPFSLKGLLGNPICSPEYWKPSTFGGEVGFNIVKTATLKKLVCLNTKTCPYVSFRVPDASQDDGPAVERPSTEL

[6] = target: T1, Alpha-2C adrenergic receptor (Homo sapiens, UniProt P18825); test: DRUGMATRIX: Adrenergic Alpha-2C radioligand binding (ligand: [3H] MK-912); format: cell membranes, Sf9, Membrane
T1 sequence (P18825 whole entry): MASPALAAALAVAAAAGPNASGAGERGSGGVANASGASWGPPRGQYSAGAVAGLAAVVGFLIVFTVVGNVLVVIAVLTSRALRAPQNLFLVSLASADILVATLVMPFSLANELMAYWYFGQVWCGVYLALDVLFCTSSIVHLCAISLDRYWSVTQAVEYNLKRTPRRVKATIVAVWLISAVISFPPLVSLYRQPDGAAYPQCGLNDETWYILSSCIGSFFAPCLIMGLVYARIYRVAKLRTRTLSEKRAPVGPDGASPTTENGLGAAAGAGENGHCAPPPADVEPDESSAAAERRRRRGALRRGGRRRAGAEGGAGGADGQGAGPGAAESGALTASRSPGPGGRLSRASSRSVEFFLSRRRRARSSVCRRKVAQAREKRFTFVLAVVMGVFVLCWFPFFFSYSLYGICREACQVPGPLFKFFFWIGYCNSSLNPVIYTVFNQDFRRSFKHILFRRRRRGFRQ

[7] = target: T2, C-C chemokine receptor type 4 (Homo sapiens, UniProt P51679); format: cell membranes, Chem-1, Membrane; conditions: chem-1; also: in other assays of this panel Not Active means under 50% inhibition at 10 µM
T2 sequence (P51679 whole entry): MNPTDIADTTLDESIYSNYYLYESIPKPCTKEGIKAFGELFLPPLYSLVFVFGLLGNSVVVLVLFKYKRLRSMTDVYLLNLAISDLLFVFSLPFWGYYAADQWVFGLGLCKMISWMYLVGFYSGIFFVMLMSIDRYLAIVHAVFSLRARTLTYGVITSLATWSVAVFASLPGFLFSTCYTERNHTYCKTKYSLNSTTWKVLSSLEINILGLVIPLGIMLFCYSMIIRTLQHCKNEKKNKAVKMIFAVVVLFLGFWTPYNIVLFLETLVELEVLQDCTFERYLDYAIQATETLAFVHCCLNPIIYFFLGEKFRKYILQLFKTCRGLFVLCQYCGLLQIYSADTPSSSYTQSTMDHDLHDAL

Row | Compound | IC50 [1] | IC50 [2] | Ki [2] | IC50 [3] | Ki [3] | IC50 [4] | Ki [4] | IC50 ([5]; platelet) | IC50 ([6]; sf9) | IC50 [7] | Ki [1] | Ki ([5]; platelet) | Ki ([6]; sf9) | Ki [7] | IC50 ([5]; read-out: IC50) [nM] | IC50 ([6]; read-out: IC50) [nM] | Ki ([6]; read-out: Ki) [nM]
1 | OC[C@H]1O[C@@H]2O[C@H]3[C@H](O)[C@@H](O)[C@@H](O[C@H]4[C@H](O)[C@@H](O)[C@@H](O[C@H]5[C@H](O)[C@@H](O)[C@@H](O[C@H]6[C@H](O)[C@@H](O)[C@@H](O[C@H]7[C@H](O)[C@@H](O)[C@@H](O[C@H]1[C@H](O)[C@H]2O)O[C@@H]7CO)O[C@@H]6CO)O[C@@H]5CO)O[C@@H]4CO)O[C@@H]3CO [ALFADEX] | Not Active | Not Active | Not Active | Not Active | Not Active | Not Active | Not Active | Not Active | Not Active | Not Active | – | – | – | – | – | – | –
2 | POVIDONE | Not Active | Not Active | Not Active | Not Active | Not Active | Not Active | Not Active | Not Active | Not Active | Not Active | Not Active | Not Active | Not Active | Not Active | – | – | –
3 | c1ccc2c(c1)Nc1ccccc1S2 [PHENOTHIAZINE] | Not Active | Not Active | Not Active | Not Active | Not Active | Not Active | Not Active | – | Not Active | Not Active | – | – | – | – | 196 | – | –
4 | CC[C@H]1OC(=O)[C@H](C)[C@@H](O[C@H]2C[C@@](C)(OC)[C@@H](O)[C@H](C)O2)[C@H](C)[C@@H](O[C@@H]2O[C@H](C)C[C@H](N(C)C)[C@H]2O)[C@](C)(O)C[C@@H](C)C(=O)[C@H](C)[C@@H](O)[C@]1(C)O [ERYTHROMYCIN] | Not Active | Not Active | Not Active | Not Active | Not Active | Not Active | Not Active | Not Active | Not Active | Not Active | – | – | – | – | – | – | –
5 | NS(=O)(=O)c1cc(C(=O)O)c(NCc2ccco2)cc1Cl [FUROSEMIDE] | Not Active | Not Active | Not Active | Not Active | Not Active | Not Active | Not Active | Not Active | Not Active | Not Active | – | – | – | – | – | – | –
6 | COc1cc([C@@H]2c3cc4c(cc3[C@H](O)[C@H]3COC(=O)[C@H]23)OCO4)cc(OC)c1OC [PODOFILOX] | Not Active | Not Active | Not Active | Not Active | Not Active | Not Active | Not Active | Not Active | Not Active | Not Active | – | – | – | – | – | – | –
7 | CC(N)Cc1c[nH]c2ccc(OCc3cccs3)cc12 (stereo not given) [BW-723C86] | Not Active | Not Active | Not Active | Not Active | Not Active | Not Active | Not Active | Not Active | Not Active | Not Active | – | – | – | – | – | – | –
8 | O=C(O)COC(=O)Cc1ccccc1Nc1c(Cl)cccc1Cl [ACECLOFENAC] | Not Active | Not Active | Not Active | Not Active | Not Active | Not Active | Not Active | Not Active | Not Active | Not Active | – | – | – | – | – | – | –
9 | COC(=O)Nc1nc2ccc(Sc3ccccc3)cc2[nH]1 [FENBENDAZOLE] | Not Active | Not Active | Not Active | Not Active | Not Active | Not Active | Not Active | Not Active | Not Active | Not Active | – | – | – | – | – | – | –
10 | Cc1c(N)nc([C@H](CC(N)=O)NC[C@H](N)C(N)=O)nc1C(=O)N[C@H](C(=O)N[C@H](C)[C@@H](O)[C@H](C)C(=O)N[C@H](C(=O)NCCc1nc(-c2nc(C(=O)NCCC[S+](C)C)cs2)cs1)[C@@H](C)O)[C@@H](O[C@@H]1O[C@@H](CO)[C@@H](O)[C@H](O)[C@@H]1O[C@H]1O[C@H](CO)[C@@H](O)[C@H](OC(N)=O)[C@@H]1O)c1c[nH]cn1.[Br-] [BLEOMYCIN A2] | Not Active | Not Active | Not Active | Not Active | Not Active | Not Active | Not Active | Not Active | Not Active | Not Active | – | – | – | – | – | – | –
11 | C#C[C@]1(O)CC[C@H]2[C@@H]3CCC4=CC(=O)CC[C@@H]4[C@H]3CC[C@@]21C [NORETHINDRONE] | Not Active | Not Active | Not Active | Not Active | Not Active | Not Active | Not Active | Not Active | Not Active | Not Active | – | – | – | – | – | – | –
12 | CC(CN1c2ccccc2Sc2ccccc21)N(C)C (stereo not given) [PROMETHAZINE] | Not Active | Not Active | Not Active | Not Active | Not Active | Not Active | Not Active | Not Active | – | Not Active | – | – | – | – | – | 2430 | 353
13 | COc1cc(NC(C)CCCN)c2ncccc2c1 (stereo not given) [PRIMAQUINE] | Not Active | Not Active | Not Active | Not Active | Not Active | Not Active | Not Active | Not Active | Not Active | Not Active | – | – | – | – | – | – | –
14 | CCCCCCNC(=O)n1cc(F)c(=O)[nH]c1=O [CARMOFUR] | Not Active | Not Active | Not Active | Not Active | Not Active | Not Active | Not Active | Not Active | Not Active | Not Active | – | – | – | – | – | – | –
15 | O=c1[nH]c2ccccc2c2ccccc12 | Not Active | Not Active | Not Active | Not Active | Not Active | Not Active | Not Active | Not Active | Not Active | Not Active | – | – | – | – | – | – | –
16 | C=C(Cl)Cl [1,1-DICHLOROETHENE] | Not Active | Not Active | Not Active | Not Active | Not Active | Not Active | Not Active | Not Active | Not Active | Not Active | – | – | – | – | – | – | –
17 | CC(=O)[C@]1(O)Cc2c(O)c3c(c(O)c2[C@@H](O[C@H]2C[C@H](N)[C@H](O)[C@H](C)O2)C1)C(=O)c1ccccc1C3=O [IDARUBICIN] | Not Active | Not Active | Not Active | Not Active | Not Active | Not Active | Not Active | Not Active | Not Active | Not Active | – | – | – | – | – | – | –
18 | Oc1ccccc1 [PHENOL] | Not Active | Not Active | Not Active | Not Active | Not Active | Not Active | Not Active | Not Active | Not Active | Not Active | – | – | – | – | – | – | –
19 | O=C(Nc1ccc(Cl)c(Cl)c1)c1cc(Cl)cc(Cl)c1O [3,3',4',5-TETRACHLOROSALICYLANILIDE] | Not Active | Not Active | Not Active | Not Active | Not Active | Not Active | Not Active | – | Not Active | Not Active | – | – | – | – | 666 | – | –
20 | CC(=O)Nc1ccc2c(c1)Cc1ccccc1-2 [2-ACETYLAMINOFLUORENE] | Not Active | Not Active | Not Active | Not Active | Not Active | Not Active | Not Active | Not Active | Not Active | Not Active | – | – | – | – | – | – | –
21 | C[N+](C)(C)CCOC(N)=O.[Cl-] [CARBACHOL] | Not Active | Not Active | Not Active | Not Active | Not Active | Not Active | Not Active | Not Active | Not Active | Not Active | – | – | – | – | – | – | –
22 | Oc1ncnc2[nH]ncc12 [ALLOPURINOL] | Not Active | Not Active | Not Active | Not Active | Not Active | Not Active | Not Active | Not Active | Not Active | Not Active | – | – | – | – | – | – | –
